Experimental findings from PubChem BioAssay (NCI) are described below.

Some test systems named below: T-47D breast; OVCAR-4 ovarian; UO-31 renal; SK-MEL-5 melanoma; NCI/ADR-RES ovarian; SF-539 CNS; KM12 colon; CAKI-1 renal; SNB-19 CNS; MOLT-4 leukemia.
Assay in all cases: growth of human tumour cells (NCI), 48 h

“And” between values parts separate entries of the source, which are not always exact repeats. Equal values may be shown once.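 Dose response: 5 concentrations. Exposure: 48 h. Format: 96-well plates. Endpoint: linear interpolation; highest concentration if not reached. Abbreviation: GI50, concentration required for 50% inhibition of growth. TGI: concentration producing complete growth inhibition.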

In the case of `O=c1ccn(C2OC(CO/N=C/c3ccc(O)c(O)c3O)C(O)C2O)c(=O)[nH]1` (centres undefined), the GI50 in the experiment on T-47D breast is 21.8 µM; with OVCAR-4 ovarian it was 18.9 µM; in the experiment with UO-31 renal, 17.2 µM; in the experiment on SK-MEL-5 melanoma it was 19.4 µM; in the experiment on NCI/ADR-RES ovarian, 20.5 µM; in the experiment on SF-539 CNS, 52.1 µM. The GI50 in the experiment on KM12 colon is 35.4 µM; with CAKI-1 renal it was 49.7 µM. The TGI with T-47D breast was 50.3 µM; with OVCAR-4 ovarian, 37.8 µM; with UO-31 renal it was 31.6 µM; in the experiment with SK-MEL-5 melanoma, 33.5 µM; with NCI/ADR-RES ovarian, 49 µM; in the experiment with SF-539 CNS, over 100 µM. For the same molecule, the TGI in the experiment on KM12 colon and in the experiment with CAKI-1 renal was over 100 µM throughout.
For the molecule `Nc1ncnc2c1nc(Cl)n2C1OC2COP(=O)(O)OC2C1O` (centres undefined), the TGI with T-47D breast is over 300 µM; in the experiment with OVCAR-4 ovarian it was 204 µM and > 100 µM; with SNB-19 CNS it was over 300 µM; in the experiment with UO-31 renal it was over 300 µM; with SK-MEL-5 melanoma, over 300 µM; in the experiment on NCI/ADR-RES ovarian, over 300 µM. Also, the TGI with SF-539 CNS is over 300 µM; in the experiment with KM12 colon, over 300 µM; in the experiment with CAKI-1 renal, 153 µM and > 100 µM.
Consider `COc1cc2c3c(n(CCCN)c(=O)c2cc1OC)-c1cc2c(cc1/C3=C\CCN)OCO2`, for which the GI50 is 19.4 µM with T-47D breast; 0.0601 µM in the experiment on MOLT-4 leukemia; 3.46 µM with SNB-19 CNS; 13.5 µM with UO-31 renal; 4.55 µM in the experiment with SK-MEL-5 melanoma; over 96.1 µM in the experiment on NCI/ADR-RES ovarian. In addition, the GI50 was 1.62 µM with SF-539 CNS, 2.6 µM in the experiment on KM12 colon and 23.6 µM in the experiment with CAKI-1 renal. Further, the TGI in the experiment on T-47D breast was over 100 µM; with SNB-19 CNS, over 30.9 µM; in the experiment on UO-31 renal, 45.7 µM; with SK-MEL-5 melanoma, 11.8 µM; in the experiment with NCI/ADR-RES ovarian it was over 100 µM; in the experiment on SF-539 CNS, 4.41 µM. The figures for the TGI in the experiment with KM12 colon and in the experiment on CAKI-1 renal were over 21.8 µM and over 100 µM, respectively.
Consider `O=C1CCCCCCCC/C=C\CC(c2ccco2)O1` (centres undefined), for which the GI50 in the experiment on T-47D breast is 13.1 µM; in the experiment on MOLT-4 leukemia it was 20.8 µM; in the experiment with SNB-19 CNS, 13.1 µM; with UO-31 renal, 21.5 µM; in the experiment with SK-MEL-5 melanoma, 18.9 µM; in the experiment on NCI/ADR-RES ovarian it was 34.4 µM. For the same molecule, the figures for the GI50 with SF-539 CNS, in the experiment with KM12 colon and in the experiment on CAKI-1 renal were 56 µM, 28.5 µM and 49.4 µM, respectively. Moreover, the TGI is 57 µM with T-47D breast; 65.7 µM in the experiment on MOLT-4 leukemia; 40.3 µM in the experiment on SNB-19 CNS; 39.9 µM in the experiment with UO-31 renal; 36.9 µM with SK-MEL-5 melanoma; over 100 µM with NCI/ADR-RES ovarian. Moreover, the TGI in the experiment with SF-539 CNS, with KM12 colon and with CAKI-1 renal was over 100 µM in each case.
For `O=NNc1ccc(S(=O)(=O)c2ccccc2)cn1`, the TGI in the experiment on T-47D breast, with MOLT-4 leukemia, with OVCAR-4 ovarian, in the experiment with SNB-19 CNS, in the experiment with UO-31 renal and in the experiment with NCI/ADR-RES ovarian was over 100 µM each time. Also, the TGI in the experiment with SF-539 CNS, with KM12 colon and with CAKI-1 renal was over 100 µM in each case.
As for `Cc1ccc(/C=C2/SC(Nc3nc(-c4csc(NC5=NC(=O)/C(=C\c6ccc(C)cc6)S5)n4)cs3)=NC2=O)cc1`, the GI50 was 35.3 µM with T-47D breast; 18.5 µM with MOLT-4 leukemia; 12.6 µM in the experiment with SNB-19 CNS; 17.9 µM in the experiment on UO-31 renal; 0.0217 µM in the experiment with SK-MEL-5 melanoma; 14.3 µM in the experiment with NCI/ADR-RES ovarian. Moreover, the GI50 in the experiment on SF-539 CNS was 13.5 µM; in the experiment with KM12 colon, 3.47 µM; in the experiment with CAKI-1 renal, 11.1 µM. Moreover, the TGI is over 50 µM with T-47D breast; over 50 µM in the experiment with MOLT-4 leukemia; over 50 µM with SNB-19 CNS; over 50 µM in the experiment with UO-31 renal; 1.4 µM with SK-MEL-5 melanoma; over 50 µM with NCI/ADR-RES ovarian. For the same molecule, the TGI with SF-539 CNS was 39.7 µM; in the experiment on KM12 colon it was over 50 µM; in the experiment with CAKI-1 renal, over 50 µM.
Turning to `NC(=S)N/N=C(\Cc1nc2ccc(Cl)cc2[nH]c1=O)C(=O)Nc1ccc(Cl)cc1`, the TGI in the experiment on MOLT-4 leukemia, in the experiment with OVCAR-4 ovarian, with SNB-19 CNS, with UO-31 renal, in the experiment with SK-MEL-5 melanoma and with NCI/ADR-RES ovarian was over 100 µM each time. The TGI in the experiment with SF-539 CNS, with KM12 colon and with CAKI-1 renal was over 100 µM each time.
`Cc1ccc(-n2c3c(c4c(CN(C)C)c(O)ccc42)CCc2ccccc2C3=O)cc1`: the GI50 was over 100 µM with T-47D breast; 20.3 µM in the experiment with MOLT-4 leukemia; over 100 µM with SNB-19 CNS; 15.9 µM with UO-31 renal; 14.9 µM with SK-MEL-5 melanoma; 14.5 µM in the experiment on NCI/ADR-RES ovarian. For the same molecule, the values for the GI50 in the experiment on SF-539 CNS, in the experiment on KM12 colon and in the experiment with CAKI-1 renal were 19.3 µM, 19.3 µM and 17.2 µM, respectively. Also, the TGI in the experiment on T-47D breast is over 100 µM; in the experiment on MOLT-4 leukemia, 39.3 µM; in the experiment on SNB-19 CNS, over 100 µM; with UO-31 renal, 38.2 µM; with SK-MEL-5 melanoma, 28.9 µM; with NCI/ADR-RES ovarian, 34.7 µM. In addition, the values for the TGI with SF-539 CNS, with KM12 colon and in the experiment on CAKI-1 renal were 36 µM, 40 µM and 44.1 µM, respectively.
As to `CCc1c(C#N)c(S[C@@H](C(N)=O)c2ccccc2)nc(N(C)C)c1C#N`, the GI50 in the experiment on T-47D breast is over 100 µM; with SNB-19 CNS, 3.46 µM; in the experiment on UO-31 renal, 2.95 µM; in the experiment with SF-539 CNS, 4.65 µM; with KM12 colon, over 100 µM; with CAKI-1 renal, 12.9 µM. In addition, the TGI in the experiment on T-47D breast is over 100 µM; in the experiment with SNB-19 CNS, 21.5 µM; in the experiment with UO-31 renal, over 100 µM; with SF-539 CNS, over 100 µM; in the experiment with KM12 colon, over 100 µM; in the experiment with CAKI-1 renal, over 100 µM.
For the molecule `CCCCCCCCCCCCCC(=O)CC(=O)c1c(O)cccc1O`, the TGI in the experiment on MOLT-4 leukemia is 52.7 µM; in the experiment with OVCAR-4 ovarian, over 100 µM; in the experiment on SNB-19 CNS, 99.2 µM; in the experiment on UO-31 renal, over 100 µM; with SK-MEL-5 melanoma, over 100 µM; in the experiment on SF-539 CNS, over 100 µM. The TGI was over 100 µM with KM12 colon and 76.1 µM in the experiment with CAKI-1 renal.
